What was measured:
[1] = tested on: U251 Glioblastoma cell line; experiment: Cytotoxicity assay (MTT, 72 hours, daily administration) in U251; type: cell-based; details: Homo sapiens, U-251, read-out: % VIABILITY ± S.D.
Description: (§1) The combinations were effective in other human tumor cell lines and we tested in glioblastoma cell line and endometrial cancer cell Additional tests include data obtained from two independent experiments, six wells for dose.

PANC-1 cell line = experiment: Cytotoxicity assay (MTT, 72 hours, daily administration) in PANC-1; details: Homo sapiens, PANC-1, read-out: % VIABILITY ± S.D.
Procedure: (§2) Human pancreatic ductal adenocarcinoma (PANC-1 and MIAPaCa-2) cell lines were purchased by Sigma Aldrich (Milan, Italy) and cultured in DMEM high glucose medium (EuroClone, Milan, Italy) supplemented with 10% of fetal bovine serum (FBS), 2 mM L-glutamine, 100 IU/mL penicillin, 100 mg streptomycin and 1 mM sodium pyruvate. Cell lines were maintained at 37° C. with 5% CO2 and 95% of humidity.
(§3) 3×10^4 cells/mL were seeded in 96-well plates in a final volume of 100 L/well. After one day of incubation, compounds or vehicles, alone or in combination, were added and six replicates were used for each treatment and all experiments were repeated three times. In all the experiments, the treatment was daily added, after washing with fresh medium. After 72 hours cell viability was investigated by adding 0.8 mg/mL of 3-[4,5-dimethylthiazol-2-yl]-2,5 diphenyl tetrazolium bromide (MTT) (Sigma Aldrich) to the media. After 3 h the supernatant was removed, and the pellet of salt crystals was solubilized with 100 μL/well of DMSO. The absorbance of the sample against a background control was measured at 570 nm using an ELISA reader microliter plate (BioTek Instruments, Winooski, VT, USA).
(§4) Cytotoxicity in PDAC cell lines: The effect of CBD, MLT and AKBA in reducing cell viability was evaluated at 72 hours, post daily administration, in PDAC cell lines. Cells were treated with different doses of CBD, MLT and AKBA (up to 1 mg) and percentage of cell viability was evaluated by the MTT assay. […] The compounds were administered daily for 72 hours, as in previous experiments at the desired doses. […] MTT assay was used to analyse the cell cytotoxicity.

[2] = tested on: PCEM004a endometrial cancer cell line; experiment: Cytotoxicity assay (MTT, 72 hours, daily administration) in PCEM004a; type: cell-based; details: Homo sapiens, read-out: % VIABILITY ± S.D.
Description: as §1

MIAPaCa-2 cell line = experiment: Cytotoxicity assay (MTT, 72 hours, daily administration) in MIAPaCa-2; details: Homo sapiens, MIA PaCa-2, read-out: % VIABILITY ± S.D.
Procedure: as §2, §3, §4

[3] = tested on: pancreatic adenocarcinoma associated genes; experiment: TaqMan Array gene expression in PANC-1, normalized for GAPDH; details: 24 hs, CBD 3.8, MLT 200, AKBA 7.5 micrograms/ml
Procedure: Total RNA from untreated or CBD, MLT, AKBA alone and in combination treated cell lines was extracted using Rneasy Mini kit (Qiagen, Milan, Italy). One microgram of total RNA from each sample was subjected to reverse transcription in a total volume of 20 μL using the High-Capacity cDNA Archive Kit (Applied Biosystem, Foster City, […], USA) according to the instructions. cDNAs were analyzed by qRT-PCR performed using an IQ5 Multicolor Real time PCR Detection system. Quantitative real-time gene expression was performed with the TaqMan® Array Human Pancreatic Adenocarcinoma 96-well Plate, containing 92 assays to pancreatic adenocarcinoma associated genes and 4 assays to candidate endogenous control genes, was purchased (Thermo Fisher, Grand Island, NY, USA) and used to evaluate the treatments in modulating PDAC-related genes (Table 1). Measurement of different housekeeping genes (GAPDH; HPRT1; GUSB) on the samples was used to normalize mRNA content. The gene expression levels of treated cell lines were expressed as relative fold compared with untreated or vehicle-treated cells.
To elucidate the molecular events induced by CBD, MLT and AKBA alone and in combination, 92 genes involved in PDAC progression and aggressiveness were evaluated by Taqman Array. Both cell lines were treated with CBD, MLT and AKBA alone and in combination, and the molecular pathways of PDAC associated gene were evaluated.
Target mRNA levels were normalized for GAPDH expression.

Compound `CC(=O)O[C@@H]1CC[C@@]2(C)[C@@H](CC[C@]3(C)[C@@H]2C(=O)C=C2[C@@H]4[C@@H](C)[C@H](C)CC[C@]4(C)CC[C@]23C)[C@@]1(C)C(=O)O` [AKBA, (3R,4R,4aR,6aR,6bS,8aR,11R,12S,12aR,14aR,14bS)-3-acetyloxy-4,6a,6b,8a,11,12,14b-heptamethyl-14-oxo-1,2,3,4a,5,6,7,8,9,10,11,12,12a, 14a-tetradecahydropicene-4-carboxylic acid] has a viability at 5 µg/mL ([1]; AKBA 5 micrograms/ml) of 100 ± 5.3%, a viability at 7.5 µg/mL ([1]; AKBA 7.5 micrograms/ml) of 100 ± 6.6% and a viability at 10 µg/mL ([1]; AKBA 10 micrograms/ml) of 100 ± 2.2%. The viability at 15 µg/mL ([1]; AKBA 15 micrograms/ml) was 76.4 ± 4.2%, the viability at 5 µg/mL (PANC-1 cell line) was 92.1 ± 5.3% and the viability at 7.5 µg/mL (PANC-1 cell line) was 86.2 ± 6.6%. It also gave a viability at 10 µg/mL (PANC-1 cell line) of 78.2 ± 5.9%, a viability at 15 µg/mL (PANC-1 cell line) of 55.3 ± 4.4% and a viability at 5 µg/mL ([2]; AKBA 5 micrograms/ml) of 100 ± 7.5%. The viability at 7.5 µg/mL ([2]; AKBA 7.5 micrograms/ml) was 98.4 ± 6.3%, the viability at 10 µg/mL ([2]; AKBA 10 micrograms/ml) was 87.4 ± 5.8% and the viability at 15 µg/mL ([2]; AKBA 15 micrograms/ml) was 60.2 ± 5.4%. It also gave a viability at 5 µg/mL (MIAPaCa-2 cell line) of 110 ± 7.3%, a viability at 7.5 µg/mL (MIAPaCa-2 cell line) of 74.8 ± 6.2% and a viability at 10 µg/mL (MIAPaCa-2 cell line) of 55.3 ± 4.8%. The viability at 15 µg/mL (MIAPaCa-2 cell line) was 12.1 ± 0.9%, the “AKT3 mRNA relative expression” value ([3]; VEI 0.00) was 0.00 and the “ARHGEF7 mRNA relative expression” value ([3]; VEI 0.00) was 0.00. The “BCL2 mRNA relative expression” value ([3]; VEI 0.00) was 0.00, the “CCND2 mRNA relative expression” value ([3]; VEI 0.00) was 0.00 and the “CDKN2B mRNA relative expression” value ([3]; VEI 0.00) was 0.20. For the same compound, the “CYP2E1 mRNA relative expression” value ([3]; VEI 0.00) was 0.00, the “EGF mRNA relative expression” value ([3]; VEI 0.00) was 0.00 and the “IGF1 mRNA relative expression” value ([3]; VEI 0.00) was 0.00. For the same compound, the “IL6 mRNA relative expression” value ([3]; VEI 0.00) was 0.00, the “KDR mRNA relative expression” value ([3]; VEI 0.00) was 0.00 and the “KIT mRNA relative expression” value ([3]; VEI 0.00) was 0.00. The “MAPK3 mRNA relative expression” value ([3]; VEI 0.00) was 0.00, the “MMP1 mRNA relative expression” value ([3]; VEI 0.00) was 0.02 and the “MMP3 mRNA relative expression” value ([3]; VEI 0.00) was 0.00. For the same compound, the “TGFA mRNA relative expression” value ([3]; VEI 0.00) was 0.02, the “TGFB2 mRNA relative expression” value ([3]; VEI 0.00) was 0.12 and the “JAK2 mRNA relative expression” value ([3]; VEI 0.01) was 0.04. For the same compound, the “JAK3 mRNA relative expression” value ([3]; VEI 0.01) was 0.03, the “MMP7 mRNA relative expression” value ([3]; VEI 0.01) was 0.03 and the “MMP9 mRNA relative expression” value ([3]; VEI 0.01) was 0.03. The “PK3CA mRNA relative expression” value ([3]; VEI 0.01) was 0.02, the “RAC2 mRNA relative expression” value ([3]; VEI 0.01) was 0.01 and the “RB1 mRNA relative expression” value ([3]; VEI 0.01) was 0.15. For the same compound, the “TGFB3 mRNA relative expression” value ([3]; VEI 0.01) was 0.05, the “TGFBR1 mRNA relative expression” value ([3]; VEI 0.02) was 0.07 and the “BRCA2 mRNA relative expression” value ([3]; VEI 0.03) was 0.10. For the same compound, the “CDKN2D mRNA relative expression” value ([3]; VEI 0.03) was 0.05, the “MDM2 mRNA relative expression” value ([3]; VEI 0.03) was 0.04 and the “RHOB mRNA relative expression” value ([3]; VEI 0.03) was 0.05. The “CDKN2C mRNA relative expression” value ([3]; VEI 0.04) was 0.12, the “PK3R1 mRNA relative expression” value ([3]; VEI 0.04) was 0.03 and the “PTGS2 mRNA relative expression” value ([3]; VEI 0.04) was 0.08. For the same compound, the “STATSB mRNA relative expression” value ([3]; VEI 0.04) was 0.20, the “MAPK1 mRNA relative expression” value ([3]; VEI 0.05) was 0.60 and the “SMAD2 mRNA relative expression” value ([3]; VEI 0.05) was 0.04. The “CCND1 mRNA relative expression” value ([3]; VEI 0.06) was 0.10, the “MAP2K2 mRNA relative expression” value ([3]; VEI 0.06) was 0.10 and the “PK3CD mRNA relative expression” value ([3]; VEI 0.06) was 0.05. The “TGFBR2 mRNA relative expression” value ([3]; VEI 0.06) was 0.10, the “VEGFA mRNA relative expression” value ([3]; VEI 0.06) was 0.45 and the “VEGFB mRNA relative expression” value ([3]; VEI 0.06) was 0.18. For the same compound, the “CCNA2 mRNA relative expression” value ([3]; VEI 0.07) was 0.10, the “CCNE2 mRNA relative expression” value ([3]; VEI 0.07) was 0.06 and the “EZF3 mRNA relative expression” value ([3]; VEI 0.07) was 0.07. The “SMAD4 mRNA relative expression” value ([3]; VEI 0.07) was 0.09, the “SOS1 mRNA relative expression” value ([3]; VEI 0.07) was 0.10 and the “TGFB1 mRNA relative expression” value ([3]; VEI 0.07) was 0.15. The “MAP2K1 mRNA relative expression” value ([3]; VEI 0.08) was 0.10, the “MMP2 mRNA relative expression” value ([3]; VEI 0.08) was 0.20 and the “VEGFC mRNA relative expression” value ([3]; VEI 0.08) was 0.12. The “CCNE1 mRNA relative expression” value ([3]; VEI 0.09) was 0.10, the “CDK2 mRNA relative expression” value ([3]; VEI 0.09) was 0.10 and the “KRAS mRNA relative expression” value ([3]; VEI 0.09) was 0.09. For the same compound, the “RAC1 mRNA relative expression” value ([3]; VEI 0.09) was 0.10, the “REL mRNA relative expression” value ([3]; VEI 0.09) was 0.08 and the “STAT2 mRNA relative expression” value ([3]; VEI 0.09) was 0.11. For the same compound, the “CDKN1B mRNA relative expression” value ([3]; VEI 0.10) was 0.10, the “CDKN2A mRNA relative expression” value ([3]; VEI 0.10) was 0.12 and the “RELA mRNA relative expression” value ([3]; VEI 0.10) was 0.10. The “AKT1 mRNA relative expression” value ([3]; VEI 0.11) was 0.20, the “PK3CB mRNA relative expression” value ([3]; VEI 0.11) was 0.16 and the “FIGF mRNA relative expression” value ([3]; VEI 0.14) was 0.00. For the same compound, the “TP53 mRNA relative expression” value ([3]; VEI 0.14) was 0.38, the “EZF4 mRNA relative expression” value ([3]; VEI 0.16) was 0.18 and the “NFKB2 mRNA relative expression” value ([3]; VEI 0.16) was 0.10. For the same compound, the “EZF1 mRNA relative expression” value ([3]; VEI 0.17) was 0.14, the “SMAD3 mRNA relative expression” value ([3]; VEI 0.17) was 0.20 and the “STAT1 mRNA relative expression” value ([3]; VEI 0.18) was 0.31. The “BRAF mRNA relative expression” value ([3]; VEI 0.22) was 0.18, the “BIRC5 mRNA relative expression” value ([3]; VEI 0.23) was 0.22 and the “JAK1 mRNA relative expression” value ([3]; VEI 0.23) was 1.10. The “CDK4 mRNA relative expression” value ([3]; VEI 0.24) was 0.25, the “EGFR mRNA relative expression” value ([3]; VEI 0.24) was 0.18 and the “RAF1 mRNA relative expression” value ([3]; VEI 0.25) was 0.08. For the same compound, the “CCNB1 mRNA relative expression” value ([3]; VEI 0.27) was 0.20, the “ERBB2 mRNA relative expression” value ([3]; VEI 0.27) was 0.07 and the “SRC mRNA relative expression” value ([3]; VEI 0.27) was 0.14. For the same compound, the “GRB2 mRNA relative expression” value ([3]; VEI 0.31) was 0.38, the “BCL2L1 mRNA relative expression” value ([3]; VEI 0.35) was 0.23 and the “HSP90AA1 mRNA relative expression” value ([3]; VEI 0.35) was 0.22. For the same compound, the “NFKB1 mRNA relative expression” value ([3]; VEI 0.35) was 0.10, the “RHOA mRNA relative expression” value ([3]; VEI 0.37) was 0.30 and the “ELK1 mRNA relative expression” value ([3]; VEI 0.41) was 0.11. The “RELB mRNA relative expression” value ([3]; VEI 0.42) was 0.12, the “CDC42 mRNA relative expression” value ([3]; VEI 0.45) was 0.02 and the “CDKN1A mRNA relative expression” value ([3]; VEI 0.49) was 0.28. The “AKT2 mRNA relative expression” value ([3]; VEI 0.50) was 0.41, the “HBEGF mRNA relative expression” value ([3]; VEI 0.53) was 0.44 and the “NOTCH1 mRNA relative expression” value ([3]; VEI 1.03) was 0.05. The “STAT6 mRNA relative expression” value ([3]; VEI 1.38) was 0.13 and the “STAT3 mRNA relative expression” value ([3]; VEI 4.45) was 0.18.

— patent US20240180872A1, “METHODS AND COMPOUNDS OF CANNABIDIOL, MELATONIN AND AKBA FOR TREATING PANCREATIC CANCER” (priority 2021, published 2024)
